From PubChem BioAssay (NCI)
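Assay format: 96-well plates, 48-hour exposure. At the TGI there is no net growth.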

Legend:
Experiment in all cases: NCI anticancer screen, dose series, 48 h
UACC-62 melanoma = system: UACC-62 melanoma
A549 NSCLC = system: A549 NSCLC
HS 578T breast = system: HS 578T breast
CAKI-1 renal = system: CAKI-1 renal
SK-MEL-28 melanoma = system: SK-MEL-28 melanoma
NCI-H226 lung = system: NCI-H226 lung
SF-539 CNS = system: SF-539 CNS
SF-268 CNS = system: SF-268 CNS
UO-31 renal = system: UO-31 renal
LOX IMVI melanoma = system: LOX IMVI melanoma
KM12 colon = system: KM12 colon
HCT-116 colon = system: HCT-116 colon
NCI/ADR-RES ovarian = system: NCI/ADR-RES ovarian
IGROV1 ovarian = system: IGROV1 ovarian
HL-60(TB) leukemia = system: HL-60(TB) leukemia
RPMI-8226 leukemia = system: RPMI-8226 leukemia
CCRF-CEM leukemia = system: CCRF-CEM leukemia
COLO 205 colon = system: COLO 205 colon
MDA-MB-435 = system: MDA-MB-435
MALME-3M melanoma = system: MALME-3M melanoma

Compound | TGI (UACC-62 melanoma) | TGI (A549 NSCLC) | TGI (HS 578T breast) | TGI (CAKI-1 renal) | TGI (SK-MEL-28 melanoma) | TGI (NCI-H226 lung) | TGI (SF-539 CNS) | TGI (SF-268 CNS) | TGI (UO-31 renal) | TGI (LOX IMVI melanoma) | TGI (KM12 colon) | TGI (HCT-116 colon) | TGI (NCI/ADR-RES ovarian) | TGI (IGROV1 ovarian) | TGI (HL-60(TB) leukemia) | TGI (RPMI-8226 leukemia) | TGI (CCRF-CEM leukemia) | TGI (COLO 205 colon) | TGI (MDA-MB-435) | TGI (MALME-3M melanoma)
CC1(C)CC(=O)c2c(nc3c(ccc4ccccc43)c2-c2ccc(NC(=O)CCC(=O)Nc3ccc(-c4c5c(nc6c4ccc4ccccc46)CC(C)(C)CC5=O)cc3)cc2)C1 | > 100 µM | > 100 µM | > 100 µM | > 100 µM | > 100 µM | > 100 µM | > 100 µM | > 100 µM | > 100 µM | > 100 µM | > 100 µM | > 100 µM | > 100 µM | > 100 µM | > 100 µM | > 100 µM | > 100 µM | > 100 µM | > 100 µM | –
COc1ccc(-c2c(-c3ccccc3)c(C)c3ccccn23)cc1 | > 100 µM | > 100 µM | > 100 µM | > 100 µM | > 100 µM | > 100 µM | > 100 µM | – | > 100 µM | > 100 µM | > 100 µM | > 100 µM | > 100 µM | > 100 µM | > 100 µM | > 100 µM | > 100 µM | > 100 µM | > 100 µM | > 100 µM
COc1cc(C2c3cc4c(cc3OC(NNS(=O)(=O)c3ccc(C)cc3)C2C)OCO4)cc(OC)c1OC (configuration not stated) | 20.3 µM | 34.4 µM | 15.2 µM | 23.9 µM | > 91.2 µM | 13.2 µM | 3.96 µM | > 70.5 µM | > 100 µM | > 100 µM | 32.3 µM | 12.1 µM | > 100 µM | > 67.3 µM | 6.59 µM | 18.4 µM | – | 16.8 µM | 2.25 µM | > 60.8 µM
CC1(C)OCC(C2OC3OC(C)(C)OC3C2c2ccccc2)O1 (configuration not stated) | 87.1 µM | > 100 µM | 64.4 µM | – | > 100 µM | 93.6 µM | > 100 µM | > 100 µM | > 100 µM | > 100 µM | > 100 µM | > 100 µM | > 100 µM | > 100 µM | 50 µM | > 100 µM | > 100 µM | 54 µM | 93.5 µM | > 100 µM
NC(=O)CSc1c2cc(O)ccc2nc2ccc(O)cc12 | > 10 µM | > 10 µM | > 10 µM | > 10 µM | > 10 µM | > 10 µM | > 10 µM | > 10 µM | – | > 10 µM | > 10 µM | > 10 µM | > 10 µM | > 10 µM | > 10 µM | > 10 µM | > 10 µM | > 10 µM | > 10 µM | > 10 µM
O=C1/C(=C\c2ccc(Br)cc2)CCCc2ccccc21 | 26.5 µM | > 100 µM | 49 µM | 68.7 µM | 40.9 µM | 28.6 µM | 43.1 µM | 37.1 µM | 27.8 µM | 29.9 µM | 29 µM | 24.8 µM | 27.2 µM | 34.4 µM | 69 µM | 48.8 µM | 53 µM | 31.8 µM | 61.5 µM | –
CC1(C)CO[P@@](=S)(c2ccccn2)O[C@@H]1c1ccccc1 | > 100 µM | > 100 µM | > 100 µM | > 100 µM | > 100 µM | > 100 µM | – | > 100 µM | > 100 µM | > 100 µM | > 100 µM | > 100 µM | > 100 µM | > 100 µM | > 100 µM | – | > 100 µM | > 100 µM | > 100 µM | > 100 µM
Cc1ccc2nc3n[nH]c(N)c3nc2c1 | > 100 µM | > 100 µM | > 100 µM | > 100 µM | > 100 µM | > 100 µM | > 100 µM | > 100 µM | > 100 µM | > 100 µM | > 100 µM | > 100 µM | > 100 µM | > 100 µM | – | > 100 µM | > 100 µM | > 100 µM | > 100 µM | > 100 µM
CCOP(=O)(OCC)/C(C#N)=C/c1ccccn1 | > 100 µM | > 100 µM | > 100 µM | > 100 µM | > 100 µM | > 100 µM | > 100 µM | > 100 µM | – | > 100 µM | > 100 µM | > 100 µM | > 100 µM | > 100 µM | > 100 µM | > 100 µM | > 100 µM | > 100 µM | > 100 µM | > 100 µM
Nc1nc2ccc(Sc3ccc4nc(N)[nH]c(=O)c4c3)cc2c(=O)[nH]1 | > 100 µM | > 100 µM | > 100 µM | > 100 µM | > 100 µM | 81.9 µM | > 100 µM | > 100 µM | > 100 µM | – | > 100 µM | > 100 µM | > 100 µM | > 100 µM | > 100 µM | > 100 µM | > 100 µM | > 100 µM | > 100 µM | > 100 µM
Cc1cccc2[nH]c3c(c(O)cc4[nH]c5cccc(C)c5c(=O)c43)c(=O)c12 | > 10 µM | > 10 µM | > 10 µM | > 10 µM | > 10 µM | > 10 µM | > 10 µM | > 10 µM | – | > 10 µM | > 10 µM | > 10 µM | > 10 µM | > 10 µM | > 10 µM | > 10 µM | > 10 µM | > 10 µM | > 10 µM | > 10 µM
N#Cc1c(=O)c2ccccc2n2ccccc12 | > 100 µM | > 100 µM | > 100 µM | > 100 µM | > 100 µM | > 100 µM | – | > 100 µM | > 100 µM | > 100 µM | > 100 µM | > 100 µM | > 100 µM | > 100 µM | > 100 µM | > 100 µM | > 100 µM | > 100 µM | > 100 µM | > 100 µM
